What was measured:
Assay type in all cases: cell-based
[1] = tested on: E. coli DH5α; experiment: Antibacterial activity: MIC and growth curve against E. coli DH5α in 96-well plate; details: minimal inhibitory concentration against E. coli DH5α; 96-well plate, 5×10^5 CFU/mL, 37° C., judged after 8 h
Summary of the method: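 Log-phase DH5α (OD600 about 0.5, 37° C, 185 rpm in LB) was pelleted, resuspended in fresh LB and seeded at 5×10^5 CFU/mL with recombinant protein at 50, 25 and 12.5 μg/mL (two-fold series), in triplicate. Plates were shaken at 175 rpm, 37° C, and OD600 was read every 30 min. MIC was the lowest concentration with no growth.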

[2] = tested on: E. coli BL21; experiment: MIC against Gram-negative bacteria: E. coli BL21; details: 10 h cultivation at 37° C., 5×10^5 CFU/mL, two-fold serial dilution
Summary of the method: (§1)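 Antibacterial activity of purified human EGF domain proteins: two-fold concentration series, triplicate wells, LB broth, 5×10^5 CFU/mL bacteria, 37° C shaking incubation. The lowest concentration without growth defines the MIC.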

[3] = tested on: Pseudomonas aeruginosa; experiment: MIC against Gram-negative bacteria: Pseudomonas aeruginosa; details: 10 h cultivation at 37° C., 5×10^5 CFU/mL, two-fold serial dilution
Summary of the method: as §1

[4] = tested on: Klebsiella pneumonia; experiment: MIC against Gram-negative bacteria: Klebsiella pneumonia; details: 10 h cultivation at 37° C., 5×10^5 CFU/mL, two-fold serial dilution
Summary of the method: as §1

[5] = tested on: Enterobacter cloacae; experiment: MIC against Gram-negative bacteria: Enterobacter cloacae; details: 10 h cultivation at 37° C., 5×10^5 CFU/mL, two-fold serial dilution
Summary of the method: as §1

[6] = tested on: Aeromonas hydrophila; experiment: MIC against Gram-negative bacteria: Aeromonas hydrophila; details: 10 h cultivation at 37° C., 5×10^5 CFU/mL, two-fold serial dilution
Summary of the method: as §1

[7] = tested on: Citrobacter diversus; experiment: MIC against Gram-negative bacteria: Citrobacter diversus; details: 10 h cultivation at 37° C., 5×10^5 CFU/mL, two-fold serial dilution
Summary of the method: as §1

[8] = tested on: Moraxella catarrhalis; experiment: MIC against Gram-negative bacteria: Moraxella catarrhalis; details: 10 h cultivation at 37° C., 5×10^5 CFU/mL, two-fold serial dilution
Summary of the method: as §1

[9] = tested on: Proteus mirabilis; experiment: MIC against Gram-negative bacteria: Proteus mirabilis; details: 10 h cultivation at 37° C., 5×10^5 CFU/mL, two-fold serial dilution
Summary of the method: as §1

[10] = tested on: Proteus vulgaris; experiment: MIC against Gram-negative bacteria: Proteus vulgaris; details: 10 h cultivation at 37° C., 5×10^5 CFU/mL, two-fold serial dilution
Summary of the method: as §1

[11] = tested on: Serratia marcescens; experiment: MIC against Gram-negative bacteria: Serratia marcescens; details: 10 h cultivation at 37° C., 5×10^5 CFU/mL, two-fold serial dilution
Summary of the method: as §1

Substance	MIC [1] [µg/mL]	MIC E. coli BL21 [2] [µg/mL]	MIC P. aeruginosa [3] [µg/mL]	MIC K. pneumonia [4] [µg/mL]	MIC E. cloacae [5] [µg/mL]	MIC A. hydrophila [6] [µg/mL]	MIC C. diversus [7] [µg/mL]	MIC M. catarrhalis [8] [µg/mL]	MIC P. mirabilis [9] [µg/mL]	MIC P. vulgaris [10] [µg/mL]	MIC S. marcescens [11] [µg/mL]
PRT1132 (DEHICTTQSPCQNGGQCMYDGGGEYHCVCLPGFHGRDCE; listed as Homo sapiens)	50	12.5	50	12.5	50	12.5	50	12.5	25	50	25
PRT1133 (KAGPCEQAGSPCRNGGQCQDDQGFALNFTCRCLVGFVGARCE; listed as Homo sapiens)	12.5	12.5	12.5	12.5	25	25	12.5	25	12.5	25	12.5
PRT1134 (NVDDCLMRPCANGATCLDGINRFSCLCPEGFAGRFCT; listed as Homo sapiens)	12.5	25	12.5	25	12.5	12.5	12.5	12.5	12.5	50	12.5
PRT1135 (NLDDCASRPCQRGARCRDRVHDFDCLCPSGYGGKTCE; listed as Homo sapiens)	25	50	100	50	25	25	12.5	25	50	25	12.5
PRT1136 (KQQFCQESLSSEFCSGHGKCLSEAWSKTYSCHCQPPFSGKYCQ; listed as Homo sapiens)	50	12.5	50	12.5	50	12.5	50	12.5	25	50	12.5
PRT1137 (ESNECKMNPCKNNSTCTDLYKSYRCECTSGWTGQNCS; listed as Homo sapiens)	25	50	25	12.5	25	50	12.5	50	12.5	50	12.5
PRT1138 (EINECDSDPCMNGGLCHESTIPGQFVCLCPPLYTGQFCH; listed as Homo sapiens)	25	50	25	12.5	25	25	50	25	12.5	25	50
PRT1139 (RYNLCDLLHNPCRNNSTCLALVDANQHCICREEFEGKNCE; listed as Homo sapiens)	12.5	25	12.5	25	50	12.5	50	12.5	50	12.5	25
PRT1140 (DVKDCLFLSCQDYGDCEDMVNNFRCICRPGFSGSLCE; listed as Homo sapiens)	25	50	12.5	50	12.5	50	12.5	50	12.5	50	100
PRT1141 (EINECSSEPCKNNGTCVDLTNRFFCNCEPEYHGPFCE; listed as Homo sapiens)	50	12.5	50	12.5	50	12.5	25	50	25	12.5	25
PRT1142 (DVNKCKISPCLDEENCVYRTDGYNCLCAPGYTGINCE; listed as Homo sapiens)	25	50	25	12.5	25	25	50	25	12.5	25	50
PRT1143 (NLDECLSEPCLHDGVCIDGINHYTCDCKSGFFGTHCE; listed as Homo sapiens)	12.5	25	50	25	12.5	50	12.5	50	12.5	50	12.5
PRT1144 (NANDCLSNPCLHGRCTELINEYPCSCDADGTSTQCK; listed as Homo sapiens)	50	12.5	50	12.5	50	12.5	25	50	25	12.5	25
PRT1145 (KINDCTSIPCMNEGFCQKSAHGFTCICPRGYTGAYCE; listed as Homo sapiens)	12.5	25	12.5	12.5	12.5	12.5	12.5	12.5	50	25	12.5

From patent US9833497B2, “Human originated EGF domain proteins and use of the same” (CHENGDU SOURCEBIO LIMITED-LIABILITY COMPANY, priority 2013, dated 2017)
